Results on one compound are retold here after PMC10620931, “Assay Development for Metal-Dependent Enzymes—Influence of Reaction Buffers on Activities and Kinetic Characteristics” (ACS Omega, 2023).

In this assay the test system is T1, BLC23O.
T1 construct: 6xHis-tag, expressed in E. coli BL21 (DE3); Ni-NTA and size exclusion; Mn2+-dependent
Nature of the assay: absorbance of ring-cleavage product at […] nm, Michaelis-Menten fit. The following applies: 50 mM HEPES pH 7.6, 10 μM Mn2+, 32.5 °C (optimal conditions). In kind it is biochemical, Halalkalibacterium ligniniphilum.

SMILES strings stand for the structures.

As a reminder, the Km is the substrate concentration at which the rate is half of its maximum. Take `Cc1cccc(O)c1O` [3-methylcatechol]: the Michaelis constant (Km) worked out at 540 ± 20 µM.
